Test results taken from ChEMBL document CHEMBL4004845, “Synthesis and trypanocidal activity of a library of 4-substituted 2-(1H-pyrrolo[3,2-c]pyridin-2-yl)propan-2-ols” (Eur J Med Chem, 2017).

Columns and labels:
[1] = system: Trypanosoma brucei brucei; assay: Antitrypanosomal activity against Trypanosoma brucei brucei Lister 427 at 18 hrs post dose by resazurin-based assay; type: functional; conditions: Lister 427, 18 h
[2] = Cytotoxicity against human HepG2 cells after 48 hrs by Cell Titer Glo assay; type: cell-based; conditions: read-out: pTC50 (converted)
[3] = system: Trypanosoma brucei brucei; assay: Antitrypanosomal activity against Trypanosoma brucei brucei Lister 427 at 70 hrs post dose by resazurin-based assay; type: functional
Trypanosoma cruzi [4] = assay: Antitrypanosomal activity against Trypanosoma cruzi Y amastigote forms infected in human U2OS cells after 96 hrs by Draq5 staining-based high content analysis; type: functional, cell-based
[5] = Cytotoxicity against human U2OS cells; type: cell-based
Trypanosoma cruzi [6] = assay: Antitrypanosomal activity against Trypanosoma cruzi Y amastigote forms infected in human U2OS cells after 96 hrs by Draq5 staining-based high content analysis relative to control; type: functional
[7] = Selectivity index, ratio of CC50 for human U2OS cells to EC50 for Trypanosoma cruzi Y amastigote forms infected in human U2OS cells; type: toxicity, cell-based; conditions: read-out: Ratio CC50/EC50

Row | Compound | EC50 [1] [µM] | pEC50 [3] | EC50 (Trypanosoma cruzi [4]) [µM] | CC50 at 48 h [2] [µM] | CC50 [5] [µM] | Emax (Trypanosoma cruzi [6]) [%] | selectivity ratio [7]
1 | CS(=O)(=O)Nc1ccc(-c2c(-c3cccnc3)oc3ncnc(N)c23)cc1 | ≤ 1 | 6.16 to 9.17 |  | 14.5 to 100 |  |  | 
2 | Cn1cc(-c2cnc3[nH]cc(-c4cccc(C#N)c4)c3c2)cn1 |  |  |  | 14.5 to 100 |  |  | 
3 | CC(C)(O)c1cc2c(-c3ccc(C#N)cc3)nccc2[nH]1 |  |  |  |  |  | 30.6 | 
4 | CC(C)(O)c1cc2c(-c3ccccc3CO)nccc2[nH]1 |  |  |  |  |  | 30.1 | 
5 | Cc1occc1-c1ncc(O[C@H](CN)c2ccccc2)cc1-c1c[nH]c2ncccc12 | ≤ 1 | 6.16 to 9.17 |  | 14.5 to 100 |  |  | 
6 | O=C(Nc1ccc(-c2ccnc3[nH]ccc23)s1)C1(Cc2ccccc2)CCCNC1 (stereo not drawn) | ≤ 1 | 6.16 to 9.17 |  | 14.5 to 100 |  |  | 
7 | CN(C)Cc1ccc(-c2[nH]c3ncc(C#N)cc3c2-c2ccccc2)cc1 | ≤ 1 | 6.16 to 9.17 |  | 14.5 to 100 |  |  | 
8 | CC[C@@H]1COCCN1c1cc(-c2cc(OC)c3c(N)n[nH]c3c2)nc(N)n1 | ≤ 1 | 6.16 to 9.17 |  | 14.5 to 100 |  |  | 
9 | OCCn1c(CNCCCNc2nc3ccccc3[nH]2)cc2c(Cl)cc(Cl)cc21 | ≤ 1 | 6.16 to 9.17 |  | 14.5 to 100 |  |  | 
10 | O=C(Cn1ccnc1[N+](=O)[O-])NCc1ccccc1 [BENZNIDAZOLE] |  |  | 3.6 |  |  | 102 | > 235
11 | CC(C)=Cc1cccc2c1/C(=N/Nc1ccc(S(N)(=O)=O)cc1)C(=O)N2 [GW396574X] | ≤ 1 | 6.16 to 9.17 |  | 14.5 to 100 |  |  | 

Further lines, with some results ahead:

Row | EC50 [1] [µM] | pEC50 [3] | EC50 (Trypanosoma cruzi [4]) [µM] | Compound | CC50 at 48 h [2] [µM] | CC50 [5] [µM] | Emax (Trypanosoma cruzi [6]) [%] | selectivity ratio [7]
12 | ≤ 1 | 6.16 to 9.17 |  | CN(C)Cc1ccc(-c2cc3c(-c4cnn(C)c4)ccnc3[nH]2)cc1 | 14.5 to 100 |  |  | 
13 |  |  | 17 | CC(C)(C)c1ccc(-c2nccc3[nH]c(C(C)(C)O)cc23)cc1 |  | 35.3 | 110 | 1.3
14 |  |  | 6.5 | CC(C)(O)c1cc2c(-c3ccccc3)nccc2[nH]1 |  | 22.2 | 106 | 3.4
15 |  |  | 4.5 | CC(C)(O)c1cc2c(-c3ccc(NC(=O)OCc4ccccc4)cc3)nccc2[nH]1 |  | 5.5 | 99.4 | 1.22
16 |  |  | 106 | CC(C)(O)c1cc2c(-c3ccsc3)nccc2[nH]1 |  | 199 | 72.8 | 1.6
17 |  |  | 3.8 | CC(C)(O)c1cc2c(-c3ccc(-c4ccccc4)c(F)c3)nccc2[nH]1 |  | 9.1 | 75.7 | 2.4
18 |  |  | 70.8 | CC(C)(O)c1cc2c(Cl)nccc2[nH]1 |  | 15.5 | 106 | 0.2
19 |  |  | 53.9 | COc1ccccc1-c1nccc2[nH]c(C(C)(C)O)cc12 |  |  | 56.6 | > 3.7
20 |  |  | 24.3 | CC(C)(O)c1cc2c(-c3cc(C(F)(F)F)cc(C(F)(F)F)c3)nccc2[nH]1 |  | 59.8 | 72.2 | 2.5
21 |  |  | 20.1 | CC(C)(O)c1cc2c(-c3ccc4ccccc4c3)nccc2[nH]1 |  | 22.5 | 102 | 1.1
22 |  |  | 45.8 | CC(C)(O)c1cc2c(-c3ccc(F)cc3)nccc2[nH]1 |  | 93.6 | 75.8 | 2
23 |  |  | 137 | CC(=O)c1ccc(-c2nccc3[nH]c(C(C)(C)O)cc23)cc1 |  |  | 60.9 | > 1.4
24 |  |  | 52.3 | Cc1cccc(-c2nccc3[nH]c(C(C)(C)O)cc23)c1 |  | 121 | 101 | 1.7
25 |  |  | 34.6 | Cc1ccc(-c2nccc3[nH]c(C(C)(C)O)cc23)cc1 |  | 38.5 | 86 | 1.1
26 |  |  | 40.9 | CC(C)(O)c1cc2c(-c3ccc(C(F)(F)F)cc3)nccc2[nH]1 |  | 72.3 | 102 | 1.5
27 |  |  | 9.6 | CCSc1ccc(-c2nccc3[nH]c(C(C)(C)O)cc23)cc1 |  | 17.2 | 107 | 1.8
